# Where a name gives a salt, the structure may show the parent alone. Positions of bridges follow the written chain, without caps; N, C: chain ends. Residues, ends and D or L forms follow the SMILES beside them.
# Test: in vitro
# Conditions: rat, gh3-tre-luc cells, AC50 (uM) modified / 1000
row,Compound,CC50 at 24 h [µM]
1,COc1ccc(C(C)=O)cc1 [4'-Methoxyacetophenone],> 90
2,"CCCC(=O)c1cc(O)c(O)cc1O [2',4',5'-Trihydroxybutyrophenone]",> 90
3,"O=C(O)c1cccc(Cl)c1Cl [2,3-Dichlorobenzoic acid]",> 90
4,CN[C@@H]1[C@@H](O)[C@@H](O[C@@H]2[C@@H](O)[C@H](O[C@H]3O[C@H](CN)[C@@H](O)[C@H](O)[C@H]3O)[C@@H](N)C[C@H]2NC(=O)[C@@H](O)CN)OC[C@]1(C)O [Isepamicin sulfate],> 50
5,"CCNC(=S)NCC [N,N'-Diethylthiourea]",> 90
6,Cc1cccc(C(=O)O)c1O [2-Hydroxy-3-methylbenzoic acid],> 50
7,"CC(O)CO (stereo not shown) [1,2-Propylene glycol]",> 90
8,N#Cc1ccc2c(c1)N(CCCN1CCC(O)CC1)c1ccccc1S2 [Periciazine],14.3
9,CN1CCN(C(c2ccccc2)c2ccccc2)CC1 [Cyclizine hydrochloride],> 20
10,CC(=O)OCC(=O)[C@@]1(O)CC[C@H]2[C@@H]3CCC4=CC(=O)CC[C@]4(C)[C@H]3C(=O)C[C@@]21C [Cortisone acetate],> 50
11,O=C(O)COc1ccc(CCNS(=O)(=O)c2ccccc2)s1 [Linotroban],> 50
12,O=S(=O)(Oc1ccc(Cl)cc1)c1ccc(Cl)cc1 [Chlorfenson],> 90
13,Cc1ncc(CO)c(CN)c1O [Pyridoxamine dihydrochloride],> 50
14,Cc1nc2n(c(=O)c1CCN1CCC(c3noc4cc(F)ccc34)CC1)CCCC2 [Risperidone],> 50
15,O=c1[nH]c2ccc([S+]([O-])CCN3CCC(Cc4ccc(F)cc4)CC3)cc2o1 (stereo not shown) [Besonprodil],> 90
16,Cc1cccc([N+](=O)[O-])c1C(=O)O [2-Methyl-6-nitrobenzoic acid],> 90
17,CC(=O)N(CC(O)CN(C(C)=O)c1c(I)c(C(=O)NC[C@@H](O)CO)c(I)c(C(=O)NC[C@@H](O)CO)c1I)c1c(I)c(C(=O)NC[C@@H](O)CO)c(I)c(C(=O)NC[C@@H](O)CO)c1I [Iodixanol],> 20
18,C=CCN=C=S [Allyl isothiocyanate],> 90
19,"COc1cccc(OC)c1C(=O)O [2,6-Dimethoxybenzoic acid]",> 90
20,C#C[C@]1(OC(=O)CCCCCC)CC[C@H]2[C@@H]3CCC4=CC(=O)CC[C@@H]4[C@H]3CC[C@@]21C [Noristerat],10.7
21,CN1C(=O)CC(c2ccccc2)C1=O (stereo not shown) [Phensuximide],> 50

row,Compound,CC50 at 24 h [µM]
1,CC(C)CN(C[C@@H](OP(=O)(O)O)[C@H](Cc1ccccc1)NC(=O)O[C@H]1CCOC1)S(=O)(=O)c1ccc(N)cc1 [Fosamprenavir calcium],> 50
2,COC(=O)C1=C(C)NC(C)=C(C(=O)OC(C)C)C1c1cccc2nonc12 (stereo not shown) [Isradipine],> 20
3,Cc1nnc2n1-c1ccc(Cl)cc1C(c1ccccc1)=NC2 [Alprazolam],> 50
4,CCC(C)c1ccccc1O (stereo not shown) [2-(Butan-2-yl)phenol],> 90
5,COc1cc(OC)nc(NC(=O)NS(=O)(=O)c2ncccc2C(=O)N(C)C)n1 [Nicosulfuron],> 90
6,C/C(=N\C#N)N(C)Cc1ccc(Cl)nc1 [Acetamiprid],> 90
7,[H]/N=C(/N)NS(=O)(=O)c1ccc(N)cc1 [Sulfaguanidine],> 20
8,CCCCCC [n-Hexane],> 90
9,C=CCc1ccc(OC)c(OC)c1 [Methyleugenol],> 90
10,O=C1NCCN1CCO [Hydroxyethyl imidazolidinone],> 100
11,"O=[N+]([O-])c1cc(C(F)(F)F)cc([N+](=O)[O-])c1Cl [2-Chloro-1,3-dinitro-5-(trifluoromethyl)benzene]",> 90
12,CCc1ccccc1N [2-Ethylaniline],> 90
13,O=C(O)C[C@H](O)C[C@H](O)/C=C/c1c(C2CC2)nc2ccccc2c1-c1ccc(F)cc1 [Pitavastatin calcium],> 50
14,O=CCCCC=O [Glutaraldehyde],> 90
15,COc1ccc(C[C@H](N)C(=O)N[C@H]2[C@@H](O)[C@H](n3cnc4c(N(C)C)ncnc43)O[C@@H]2CO)cc1 [Puromycin dihydrochloride],11.2
16,CCCCC=O [Pentanal],> 90
17,Cc1cccc2nccnc12 [5-Methylquinoxaline],> 90
18,O=C(Cl)c1ccccc1 [Benzoyl chloride],> 90
19,CC(C)(C)C(O)C(Oc1ccc(Cl)cc1)n1cncn1 (stereo not shown) [Triadimenol],> 90
20,NNc1nnc(NN)c2ccccc12 [Dihydralazine],> 50
21,C=CC(=O)OC(C)(C)C [tert-Butyl acrylate],> 90

row,Compound,CC50 at 24 h [µM]
1,CO[Si](CCCCl)(OC)OC [(3-Chloropropyl)trimethoxysilane],> 90
2,CN(C)C(=O)C1(N2CCCCC2)CCN(CC[C@@]2(c3ccc(Cl)c(Cl)c3)CN(C(=O)c3ccccc3)CCO2)CC1 [SSR 241586 HCl],4.07
3,O=C(O)c1cc(=O)[nH]c(=O)[nH]1 [Orotic acid],> 90
4,CC(C)OP(=O)(CP(=O)(OC(C)C)OC(C)C)OC(C)C [Tetraisopropyl methylenediphosphonate],> 90
5,"CCCCC(=O)N(C)C [N,N-Dimethylpentanamide]",> 90
6,CCCCCCCCC(=O)OCC [Ethyl nonanoate],> 90
7,C=C1C[C@@H]2[C@H](CC[C@]3(C)C(=O)CC[C@@H]23)[C@@]2(C)C=CC(=O)C=C12 [Exemestane],> 50
8,"O=C1C=CC(=O)O1 [2,5-Furandione]",> 100
9,"Cc1ccc(C)c(O)c1 [2,5-Dimethylphenol]",> 90
10,CC(C)(C)C1CCCCC1O (stereo not shown) [2-tert-Butylcyclohexanol],> 90
11,"Nc1nnc(-c2ccc([N+](=O)[O-])o2)o1 [2-Amino-5-(5-nitro-2-furyl)-1,3,4-oxadiazole]",59
12,COc1ccc(NC(=O)CC(C)=O)cc1 [N-(4-Methoxyphenyl)-3-oxobutanamide],> 90
13,C=CC[N@@+]12CC[C@@]34c5ccccc5N5/C=C6/[C@H]7C[C@H]8[C@@]9(CC[N@@+]8(CC=C)C/C7=C/CO)c7ccccc7N(/C=C(/[C@@H](C[C@@H]31)/C(=C\CO)C2)[C@H]54)[C@@H]69 [Alcuronium chloride],> 20
14,CC(=O)OCCC1CCCCC1 [2-Cyclohexylethyl acetate],> 90
15,C=CCSSCCC [Allyl propyl disulfide],> 90
16,c1ccc(Oc2ccccc2)cc1 [Diphenyl oxide],> 90
17,CCCCCCCCCCCCCCCCCCCCCCO [1-Docosanol],> 50
18,Cc1cc2c3c(c1)C(c1ccccc1)=N[C@@H](NC(=O)c1ccncc1)C(=O)N3CC2 [CI-1018],> 90
19,CO[C@H]1/C=C/O[C@@]2(C)Oc3c(C)c(O)c4c(O)c(c5c(nc6cc(C)ccn65)c4c3C2=O)NC(=O)/C(C)=C\C=C\[C@H](C)[C@H](O)[C@@H](C)[C@@H](O)[C@@H](C)[C@H](OC(C)=O)[C@@H]1C [Rifaximin],> 50
20,Nc1c(CC(=O)O)cccc1C(=O)c1ccccc1 [Amfenac sodium],> 50
21,CCCCCCCCCCCSCC(=O)O [3-Thiatetradecanoic acid],50.2

row,Compound,CC50 at 24 h [µM]
1,COC(=O)CCCCC(=O)O [Methyl hexanedioate],> 90
2,Cc1c(NC(C)C)c(=O)n(-c2ccccc2)n1C [Ramifenazone],> 50
3,COP(=O)(OC)SCn1c(=O)oc2cc(Cl)cnc21 [Azamethiphos],> 90
4,"Sc1nnc(S)s1 [2,5-Dimercapto-1,3,4-thiadiazole]",> 90
5,CO/N=C(/C1=NOCCO1)c1ccccc1Oc1ncnc(Oc2ccccc2Cl)c1F [Fluoxastrobin],32.7
6,NCCCC[C@H](NC(=O)[C@@H]1CCCN1C(=O)[C@@H]1CSSC[C@H](NC(=O)CNC(=O)CNC(=O)CN)C(=O)N[C@@H](Cc2ccc(O)cc2)C(=O)N[C@@H](Cc2ccccc2)C(=O)N[C@@H](CCC(N)=O)C(=O)N[C@@H](CC(N)=O)C(=O)N1)C(=O)NCC(N)=O [Terlipressin] (H-GGGCYFQNCPKG-NH2; disulfide 4-9),> 50
7,O=C(O)Cc1csc(-c2ccc(Cl)cc2)n1 [Fenclozic acid],> 50
8,C=C(C)[C@@H]1CC=C(C)C(=O)C1 [R-(-)-Carvone],> 90
9,CCN1CCC[C@H]1CNC(=O)c1c(OC)ccc(Br)c1OC [Remoxipride],> 50
10,O=C(OCCOCCOC(=O)c1ccccc1)c1ccccc1 [Diethylene glycol dibenzoate],> 90
11,"COc1ccc(N)cc1N [2,4-Diaminoanisole sulfate]",24.6
12,CCOC(=O)/C=C(C)/C=C/C=C(C)/C=C/c1c(C)cc(OC)c(C)c1C [Etretinate],> 50
13,OC[C@@H](O)[C@@H](O)CO [Erythritol],> 90
14,FC(F)(F)c1cccc(Cl)c1 [3-Chlorobenzotrifluoride],> 90
15,C[C@@H](c1ncncc1F)[C@](O)(Cn1cncn1)c1ccc(F)cc1F [Voriconazole],> 50
16,CCCCCCCC/C=C\CCCCCCCC(=O)O [Oleic acid],> 90
17,CCC1(C2=NCCN2)Cc2ccccc2O1 (stereo not shown) [Efaroxan],> 50
18,CCCn1c(=O)[nH]c(=O)c2[nH]cnc21 [Enprofylline],> 50
19,CC/C=C(\C(=O)N[C@@H]1C(=O)N2C(C(=O)OCOC(=O)C(C)(C)C)=C(COC(N)=O)CS[C@H]12)c1csc(N)n1 [Cefcapene pivoxil hydrochloride],> 50

# Same assay, conditions: rat, gh3-tre-luc cells, AC50 (uM) modified / 1000, Tox21_110001=Tox21_111075; viability, 1 nM T3 present, 24 h
row,Compound,CC50 at 24 h [µM]
1,CC(C)NC(C)C [Diisopropylamine],> 50

# Same assay, conditions: rat, gh3-tre-luc cells, AC50 (uM) modified / 1000, Tox21_110001=Tox21_111697; viability, 1 nM T3 present, 24 h
row,Compound,CC50 at 24 h [µM]
1,CCNC(C)Cc1cccc(C(F)(F)F)c1 (stereo not shown) [Fenfluramine],> 50

# Same assay, conditions: rat, gh3-tre-luc cells, AC50 (uM) modified / 1000, Tox21_110001=Tox21_200216; viability, 1 nM T3 present, 24 h
row,Compound,CC50 at 24 h [µM]
1,CC(C)NC(C)C [Diisopropylamine],> 90

# Source: article PMC6792352, “Limited Chemical Structural Diversity Found to Modulate Thyroid Hormone Receptor in the Tox21 Chemical Library” (Environmental Health Perspectives, 2019)
